Test results from Sander's compilation of Henry's law constants (doi:10.1002/etc.5620201008).
Where “and” joins values, the source holds several entries; their conditions need not be identical. Equal values may be shown once.

How the values were obtained:
Details in all cases: reference: Kochetkov et al. (2001)
[1] = Henry solubility constant Hcp at 301 K (mol/(m3 Pa))
[2] = Henry solubility constant Hcp at 299 K (mol/(m3 Pa))
[3] = Henry solubility constant Hcp at 300 K (mol/(m3 Pa))

SMILES	Henry solubility constant Hcp at 299 K [2]	Henry solubility constant Hcp at 300 K [3]	also measured
c1ccccc1 [benzene]	–	–	Henry solubility constant Hcp at 301 K [1]: 0.0021 and 0.0017
C[Si](C)(C)O[Si](C)(C)C [hexamethyldisiloxane]	–	0.00017 and 0.00031	–
C[Si](C)(C)O[Si](C)(C)O[Si](C)(C)C [octamethyltrisiloxane]	–	3.3e-06 and 2.7e-06	–

Now from value to molecule, other results behind:

Henry solubility constant Hcp at 299 K [2]	Henry solubility constant Hcp at 300 K [3]	SMILES	also measured
3.4e-05 and 3.1e-05	–	C[Si]1(C)O[Si](C)(C)O[Si](C)(C)O[Si](C)(C)O[Si](C)(C)O1 [decamethylcyclopentasiloxane]	–
–	5.8e-07	C[Si](C)(C)O[Si](C)(C)O[Si](C)(C)O[Si](C)(C)C [decamethyltetrasiloxane]	–
6.8e-05 and 0.00015	–	C[Si]1(C)O[Si](C)(C)O[Si](C)(C)O[Si](C)(C)O[Si](C)(C)O[Si](C)(C)O1 [dodecamethylcyclohexasiloxane]	–
